Results on 34 compounds are retold here after ChEMBL document CHEMBL5620345, “Metal binding pharmacophore click-derived discovery of new broad-spectrum metallo-β-lactamase inhibitors” (Eur J Med Chem, 2023).

Bounds are passed on as bounds.

Broadly, the MIC is the lowest concentration that inhibits growth of the organism. What is called IC50 is the concentration at which inhibition is half-maximal.

Test [1] relates to Escherichia coli. Kind of test: Antibacterial activity against Escherichia coli BAA2452 expressing blaNDM-1 clinical isolates assessed as meropenem MIC incubated for 16 to 18 hrs by broth microdilution method. It counts as functional. As to conditions: time 16-18 hrs. On the technique in general: In broth dilution the organism is exposed to a series of concentrations in liquid medium.

Test [2] has as its system Enterobacterales. Nature of the test: Antibacterial activity against Carbapenem-Resistant Enterobacterales 19 expressing blaNDM-1 clinical isolates assessed as fold potentiation incubated for 16 to 18 hrs by broth microdilution method. It is filed as functional. The settings on record: time 16-18 hrs.
Test [3] can be described thus: Inhibition of recombinant VIM-1 (unknown origin) expressed in Escherichia coli (DE3) cells using FC5 as substrate by microplate reader assay.
Test [4] concerns Escherichia coli. Kind of test: Antibacterial activity against Escherichia coli C1580 expressing blaIMP-1 clinical isolates assessed as meropenem MIC incubated for 16 to 18 hrs by broth microdilution method. It is filed as functional. As to conditions: time 16-18 hrs.
A short description of test [5]: Inhibition of recombinant VIM-5 (unknown origin) expressed in Escherichia coli (DE3) cells using FC5 as substrate by microplate reader assay.
Test [6] can be described thus: Inhibition of recombinant NDM1 (unknown origin) expressed in Escherichia coli (DE3) cells using FC5 as substrate by microplate reader assay.
A short description of test [7]: Inhibition of recombinant his tagged IMP1 (unknown origin) expressed in Escherichia coli (DE3) cells using FC5 as substrate by microplate reader assay.
The subject of test [8] is Enterobacterales. Nature of the test: Antibacterial activity against Carbapenem-Resistant Enterobacterales 19 expressing blaNDM-1 clinical isolates assessed as meropenem MIC incubated for 16 to 18 hrs by broth microdilution method. It is filed as functional. As to conditions: time 16-18 hrs.
The test system of another test is Klebsiella pneumoniae. Nature of the test: Antibacterial activity against Klebsiella pneumoniae BAA2470 expressing blaNDM-1 clinical isolates assessed as meropenem MIC incubated for 16 to 18 hrs by broth microdilution method. It is filed as functional. As to conditions: time 16-18 hrs.
Test [9] is described as follows: Inhibition of recombinant his tagged VIM-2 (unknown origin) expressed in Escherichia coli (DE3) cells using FC5 as substrate by microplate reader assay.
For test [10], the system named is Escherichia coli. Kind of test: Antibacterial activity against Escherichia coli C1541 expressing blaVIM-2 clinical isolates assessed as meropenem MIC incubated for 16 to 18 hrs by broth microdilution method. It is filed as functional. The settings on record: time 16-18 hrs.
For test [11], the system named is Escherichia coli. Kind of test: Antibacterial activity against Escherichia coli BAA2452 expressing blaNDM-1 clinical isolates assessed as fold potentiation incubated for 16 to 18 hrs by broth microdilution method. It is filed as functional. As to conditions: time 16-18 hrs.
The test system of test [12] is Escherichia coli. Nature of the test: Antibacterial activity against Escherichia coli C1580 expressing blaIMP-1 clinical isolates assessed as fold potentiation incubated for 16 to 18 hrs by broth microdilution method. It counts as functional. As to conditions: time 16-18 hrs.

Consider `O=[N+]([O-])c1ccc(Cn2cc(-c3cccc(B(O)O)c3)nn2)cc1`, for which the MIC is 64 µg/mL in the test on Escherichia coli [1]; 16 µg/mL in the test on Escherichia coli [4]; 32 µg/mL with Enterobacterales [8]; more than 128 µg/mL with Klebsiella pneumoniae; 64 µg/mL with Escherichia coli [10]. The “fold change (FC)” value with Enterobacterales [2], in the test on Escherichia coli [11] and in the test on Escherichia coli [12] was 2 throughout. In addition, the IC50 was more than 100 µM in test [3]; 81.1 µM in test [5]; 48 µM in [6]; more than 100 µM in [7]; 9.76 µM in test [9].
As to `CCCCc1cn(-c2cccc(CP(=O)(O)O)c2)nn1`, the IC50 in [3] is 16.5 µM; in test [5], 1.73 µM; in [6], more than 100 µM; in test [7] it was 12.3 µM; in test [9], 2.23 µM.
In the case of `O=C(O)c1cccc(-n2cc(-c3ccccc3)nn2)c1C(=O)O`, the IC50 is more than 100 µM in test [3]; more than 100 µM in test [5]; more than 100 µM in test [6]; 8.23 µM in test [7]; 13.3 µM in [9].
Consider `O=C(O)c1cccc(-n2cc(-c3cccc(Cl)c3)nn2)c1C(=O)O`, for which the half-maximal inhibitory concentration (IC50) in test [3] is 15 µM; in [5], 32.2 µM; in test [6] it was more than 100 µM; in test [7], 2.84 µM; in [9], 20.5 µM.
Regarding `O=C(NCc1cn(-c2ccc(CP(=O)(O)O)cc2)nn1)C(F)(F)F`, the concentration for half-maximal inhibition (IC50) in [3] was 27.9 µM; in test [5] it was 31.8 µM; in [6] it was more than 100 µM; in test [7] it was more than 100 µM; in [9], 27.2 µM.
As for `Cc1ccc(-c2cn(-c3cccc(CP(=O)(O)O)c3)nn2)cc1`, the half-inhibitory concentration (IC50) in [3] was determined as 5.48 µM; in [5] it was 0.045 µM; in [6], 24.6 µM; in test [7] it was 4.4 µM; in [9], 0.77 µM.
Take `Nc1cccc(-c2cn(-c3cccc(C(=O)O)c3C(=O)O)nn2)c1`: the IC50 is 14.5 µM in [3]; more than 100 µM in [5]; more than 100 µM in test [6]; 1.17 µM in test [7]; 11.7 µM in test [9].
`Nc1cccc(-n2cc(-c3cccc(B(O)O)c3)nn2)c1`: the IC50 was more than 100 µM in test [3]; more than 100 µM in test [5]; 50.4 µM in test [6]; more than 100 µM in [7]; 18.4 µM in test [9].
As to `O=P(O)(O)Cc1cccc(-n2cc(-c3ccccc3F)nn2)c1`, the IC50 in test [3] turned out to be 9.79 µM; in test [5], 0.1 µM; in test [6], 25.9 µM; in [7], 8.49 µM; in [9] it was 0.65 µM.
With `O=P(O)(O)Cc1cccc(-n2cc(-c3ccc(F)cc3)nn2)c1`, the concentration for half-maximal inhibition (IC50) was 9.64 µM in [3]; 0.063 µM in [5]; 24.3 µM in [6]; 2.17 µM in test [7]; 0.29 µM in test [9].
For `O=C(O)c1cccc(-n2cc(CNc3ccccc3)nn2)c1C(=O)O` the same measures were 37.8 µM, 72 µM, more than 100 µM, 3.53 µM and 53.2 µM.
In the case of `NCc1cn(-c2cccc(C(=O)O)c2C(=O)O)nn1`, the half-inhibitory concentration (IC50) is more than 100 µM in test [3]; more than 100 µM in test [5]; more than 100 µM in test [6]; 81.5 µM in [7]; more than 100 µM in [9].
For the compound `Cc1cccc(-c2cn(-c3ccccc3CP(=O)(O)O)nn2)c1`, the IC50 in test [3] was 6.57 µM; in test [5], 1.89 µM; in [6], more than 100 µM; in [7], more than 100 µM; in test [9], 3.37 µM.
On to `Nc1c(C(=O)O)cccc1-n1cc(-c2ccccc2)nn1`, for which the concentration for half-maximal inhibition (IC50) in test [3], in [5], in test [6], in [7] and in test [9] was more than 100 µM throughout.
In the case of `NCc1cn(-c2cccc(CP(=O)(O)O)c2)nn1`, the IC50 in test [3] was 23.9 µM; in test [5], 14.5 µM; in [6], more than 100 µM; in test [7], more than 100 µM; in test [9], 2.69 µM.
For the compound `O=C(CCn1cc(-c2cccc(B(O)O)c2)nn1)Nc1cccc(Cl)c1`, the IC50 in test [3] was more than 100 µM; in test [5] it was 48.7 µM; in test [6] it was 68.2 µM; in test [7], more than 100 µM; in [9], 30.5 µM.
In the case of `O=C(O)c1cccc(-n2cc(CCO)nn2)c1C(=O)O`, the concentration for half-maximal inhibition (IC50) in [3] was more than 100 µM; in test [5] it was more than 100 µM; in [6] it was more than 100 µM; in test [7], 40.7 µM; in test [9], more than 100 µM.
With `NCc1cccc(-c2cn(-c3cccc(C(=O)O)c3C(=O)O)nn2)c1`, the IC50 in [3] was more than 100 µM; in test [5] it was more than 100 µM; in test [6], more than 100 µM; in test [7], 19.7 µM; in [9], more than 100 µM.
For the compound `CCCCc1cn(-c2cccc(C(=O)O)c2C(=O)O)nn1`, the concentration for half-maximal inhibition (IC50) is more than 100 µM in [3]; more than 100 µM in test [5]; more than 100 µM in test [6]; 8.94 µM in test [7]; 77.2 µM in [9].
Consider `OB(O)c1cccc(-c2cn(Cc3ccccc3)nn2)c1`, for which the IC50 is more than 100 µM in test [3]; 14.6 µM in test [5]; 36.3 µM in test [6]; more than 100 µM in test [7]; 64.2 µM in test [9].
Regarding `O=P(O)(O)Cc1cccc(-n2cc(CNc3ccccc3)nn2)c1`, the 50% inhibitory concentration (IC50) stood at 3.77 µM in [3]; 0.64 µM in test [5]; 2.84 µM in test [6]; 0.78 µM in [7]; 0.84 µM in test [9].
The matching figures for `NCC(=O)Nc1cccc(-c2cn(-c3cccc(CP(=O)(O)O)c3)nn2)c1`: 1.82 µM, 0.086 µM, 19.3 µM, 24.1 µM and 0.29 µM.
Turning to `O=P(O)(O)Cc1ccccc1-n1cc(CNc2ccccc2)nn1`, the IC50 in test [3] is 46 µM; in test [5] it was 14.9 µM; in test [6], 82.8 µM; in test [7], more than 100 µM; in test [9], 4.16 µM.
The matching figures for `NCc1cccc(-c2cn(-c3ccccc3CP(=O)(O)O)nn2)c1`: 21.7 µM, 1.4 µM, more than 100 µM, more than 100 µM and 4.92 µM.
Turning to `O=P(O)(O)Cc1cccc(-n2cc(-c3cccc(Br)c3)nn2)c1`, the 50% inhibitory concentration (IC50) in test [3] is 4.97 µM; in test [5] it was 0.016 µM; in [6], 24.2 µM; in test [7], 11.3 µM; in [9], 0.66 µM.
For `O=C(O)c1cn(-c2cccc(C(=O)O)c2C(=O)O)nn1` the same measures were more than 100 µM, 93.6 µM, more than 100 µM, 29.2 µM and 55.3 µM.
Turning to `O=C(CCn1cc(-c2cccc(B(O)O)c2)nn1)Nc1ccccc1`, the IC50 was more than 100 µM in [3]; 6.36 µM in test [5]; more than 100 µM in test [6]; more than 100 µM in test [7]; 34.3 µM in test [9].
For the compound `O=C(NCc1cn(-c2cccc(CP(=O)(O)O)c2)nn1)C(F)(F)F`, the half-maximal inhibitory concentration (IC50) in test [3] was 33.7 µM; in test [5], 0.028 µM; in test [6] it was 73.7 µM; in [7], 54.6 µM; in test [9] it was 2.22 µM.
For the compound `Cc1cccc(-c2cn(-c3ccc(CP(=O)(O)O)cc3)nn2)c1`, the IC50 in test [3] was 11.8 µM; in [5], 1.16 µM; in test [6], 65.5 µM; in test [7] it was more than 100 µM; in [9], 2.03 µM.
The matching figures for `OB(O)c1cccc(-c2cn(-c3cccc(Cl)c3)nn2)c1`: more than 100 µM, 14.7 µM, 29.1 µM, more than 100 µM and 24.2 µM.
As for `O=C(O)c1ccc(-n2cc(-c3ccccc3)nn2)cc1C(=O)O`, the IC50 in test [3] is more than 100 µM; in test [5] it was 60.4 µM; in test [6] it was more than 100 µM; in test [7] it was 46.2 µM; in test [9] it was 94.6 µM.
Consider `Nc1ccccc1-c1cn(-c2cccc(C(=O)O)c2C(=O)O)nn1`, for which the IC50 in test [3] is more than 100 µM; in test [5], 61.7 µM; in test [6], more than 100 µM; in test [7], 6.43 µM; in test [9] it was 37.6 µM.
Take `CCCCc1cn(-c2ccccc2CP(=O)(O)O)nn1`: the concentration for half-maximal inhibition (IC50) is 13.8 µM in [3]; 32.2 µM in test [5]; more than 100 µM in test [6]; more than 100 µM in test [7]; 5.34 µM in test [9].
On to `COc1cccc(-c2cn(-c3cccc(CP(=O)(O)O)c3)nn2)c1`, for which the IC50 in test [3] worked out at 8.74 µM; in [5] it was 0.093 µM; in test [6], 60 µM; in test [7], 12.2 µM; in test [9], 0.83 µM.
